We go through 55 compounds from patent US20070112068A1, “Nitrile compound and its use in pest control” (priority 2003, published 2007).

Common to all, as to type: in vivo
The subject of one assay is Blattalla germanica. In words: Experimental Example 3: treated filter paper with sucrose bait, German cockroach. As to conditions: 500 ppm, 0.7 ml on filter paper; two male imagoes; after 6 days. On the procedure:
A filter paper having a diameter of 5.5 cm was spread on the bottom of a polyethylene cup having a diameter of 5.5 cm and 0.7 ml of the experimental pesticidal solution was added dropwise onto the filter paper. As a bait 30 mg of sucrose was uniformly placed on the filter paper. Into the polyethylene cup, two male Blattalla germanica imagoes were released and the cup was sealed with a lid. After 6 days, the number of surviving Blattalla germanica was examined and the death rate of the pest was calculated.

The test system of assay [1] is Blattella germanica. In words: Experimental Example 14: topical application, Blattella germanica. As to conditions: 1 μl of 1% (w/v) acetone solution onto sternum of thorax of female imagoes; after 7 days. On the procedure: 1% (w/v) solutions of the present compounds (4), (20), (22), (23), (24), (29), (30), (31), (35), (36), (37), (38), (46), (53), (54), (56), (57), (59), (61), (66), (67), (68), (69), (70), (71), (79), (81), (83), (84), (89), and (90) in acetone were prepared. Onto the sternum of the thorax of female imagoes of Blattella germanica, 1 μl of the acetone solution was added dropwise. The imagoes were transferred to a plastic cup having a diameter of about 9 cm and a height of about 4.5 cm and left together with feed and water at 25° C. After 7 days, the number of surviving Blattella germanica was examined and the death rate of the pest was calculated. 10 imagoes of Blattella germanica were put in a cup and three replicate experiments were performed.

For assay [2], the system named is Blattella germanica. In words: Experimental Example 15: treated filter paper in paper box, Blattella germanica. As to conditions: 0.1 ml of 2.5% (w/v) acetone solution on filter paper in paper box; after 7 days. On the procedure:
(§1) 2.5% (w/v) solutions of the present compounds (23), (24) and (31) in acetone were prepared. 0.1 ml of the solution was added dropwise onto a filter paper with 2 cm×2 cm and then air-dried. This filter paper was attached to the center of the inside bottom of a paper box having 10 cm (width)×2 cm (height)×7 cm (depth) with a two-sided tape. One hole of 5 mm in width and 2 cm in height was made through one side of this box. This box was placed in a plastic vat with 25 cm×20 cm×8 cm in height and therein 10 females and 10 males of Blattella germanica were released. The inside wall of the plastic vat used in this experiment was coated with talc for preventing the escape of cockroaches. The plastic vat contained feed and water and left at 25° C. After 7 days, Blattella germanica was observed and the death rate of the pest was calculated. This experiment was repeated two times.

The next assay has as its system Periplaneta fuliginosa. In words: Experimental Example 16: treated filter paper in paper box, Periplaneta fuliginosa. The settings on record: 0.1 ml of 5% (w/v) acetone solution on filter paper in paper box; after 7 days. On the procedure:
as §1, with “5% (w/v)” for “2.5% (w/v)”, “of 2” for “of 5”, “therein 3” for “therein 10”, “and 3” for “and 10”, “of Periplaneta fuliginosa” for “of Blattella germanica”, “days, Periplaneta fuliginosa” for “days, Blattella germanica”

As to `N#CC(C#N)(CCCCCl)CCC(F)(F)F` [(3)], in the assay on Blattalla germanica, the “death rate of the pest” value was 100%.
As to `N#CC(C#N)(CCC(F)(F)F)CC1CC1(Cl)Cl` (stereo not drawn) [(4)], the “death rate of the pest” value with Blattalla germanica and with Blattella germanica [1] was 100% in each case.
For `N#CC(C#N)(CCC(F)(F)F)CCC(F)(F)F` [(5)], the “death rate of the pest” value with Blattalla germanica is listed as 100%.
Same read-out and setting: for `CCCCCC(C#N)(C#N)CCC(F)(F)F` [(9)] the value was 100%; for `CCCCCCC(C#N)(C#N)CCC(F)(F)F` [(10)], 100%; for `N#CC(C#N)(CCC(F)=C(F)F)CCC(F)(F)F` [(17)], 100%.
For `N#CC(C#N)(CCC(F)(F)F)CC(F)(F)C(F)F` [(20)], the “death rate of the pest” value with Blattalla germanica and with Blattella germanica [1] was 100% throughout.
Regarding `N#CC(C#N)(CCC(F)(F)F)CC(F)(F)F` [(21)], the “death rate of the pest” value in the assay with Blattalla germanica was 100%.
As for `N#CC(C#N)(CCC(F)(F)F)CC(F)(F)C(F)(F)F` [(22)], the “death rate of the pest” value with Blattalla germanica and in the assay with Blattella germanica [1] was 100% each time.
For `N#CC(C#N)(CCC(F)(F)F)CC(F)(F)C(F)C(F)(F)F` (stereo not drawn) [(23)], the “death rate of the pest” value in the assay with Blattalla germanica was 100%; with Blattella germanica [1] it was 100%; in the assay with Blattella germanica [2] it was 97.5%; in the assay on Periplaneta fuliginosa it was 91.7%.
For the compound `N#CC(C#N)(CCF)CCC(F)(F)F` [(25)], the “death rate of the pest” value in the assay on Blattalla germanica is 100%.
`C#CCC(C#N)(C#N)CCC(F)(F)F` [(27)]: the “death rate of the pest” value in the assay with Blattalla germanica came out at 100%.
Turning to `N#CC(C#N)(CCC(F)(F)F)CCC(F)(F)C(F)(F)F` [(29)], the “death rate of the pest” value in the assay on Blattalla germanica and in the assay on Blattella germanica [1] was 100% each time.
`N#CC(C#N)(CCC(F)(F)F)CCC(F)(Cl)C(F)(F)Br` (stereo not drawn) [(30)]: the “death rate of the pest” value in the assay on Blattalla germanica and in the assay with Blattella germanica [1] was 100% each time.
With `N#CC(C#N)(CCC(F)(F)F)CC(F)(F)C(F)(F)C(F)(F)C(F)(F)C(F)(F)C(F)F` [(32)], the “death rate of the pest” value with Blattalla germanica is reported as 100%.
As to `N#CC(C#N)(CCC(F)(F)F)CCC(F)(F)C(F)(F)Br` [(35)], the “death rate of the pest” value in the assay on Blattalla germanica and with Blattella germanica [1] was 100% each time.
Turning to `N#CC(C#N)(CCC(F)(F)F)CCC(F)(C(F)(F)F)C(F)(F)F` [(36)], the “death rate of the pest” value in the assay with Blattalla germanica and in the assay with Blattella germanica [1] was 100% throughout.
For `N#CC(C#N)(CCC(F)(F)F)CCC(F)(F)C(F)(F)C(F)(F)F` [(37)], the “death rate of the pest” value in the assay on Blattalla germanica and with Blattella germanica [1] was 100% throughout.
Take `N#CC(C#N)(CCC(F)(F)F)CCC(F)(F)C(F)(F)C(F)(F)C(F)(F)F` [(38)]: the “death rate of the pest” value in the assay with Blattalla germanica and in the assay with Blattella germanica [1] was 100% each time.
Consider `N#CC(C#N)(CCC(F)(Cl)C(F)(F)Br)CC(F)(F)C(F)C(F)(F)F` (stereo not drawn) [(46)], for which the “death rate of the pest” value in the assay with Blattalla germanica and in the assay with Blattella germanica [1] was 100% each time.
For the compound `C=CCC(C#N)(C#N)CC(F)(F)C(F)(F)C(F)(F)C(F)F` [(47)], the “death rate of the pest” value with Blattalla germanica is listed as 100%.
As to `N#CC(C#N)(CCCC(F)(F)F)CCC(F)(F)F` [(48)], the “death rate of the pest” value in the assay with Blattalla germanica worked out at 100%.
Turning to `N#CC(C#N)(CC(F)(F)C(F)F)CC(F)(F)C(F)F` [(50)], in the assay on Blattalla germanica, the “death rate of the pest” value came to 100%.
On the same count and under the same terms, for `N#CC(C#N)(CBr)CCC(F)(F)F` [(52)] the value was 100%.
Take `N#CC(C#N)(CCC(F)(F)F)CCC(F)(Cl)C(F)(F)Cl` (stereo not drawn) [(54)]: the “death rate of the pest” value in the assay with Blattalla germanica and with Blattella germanica [1] was 100% in each case.
As to `N#CC(C#N)(CCCCCF)CCC(F)(F)F` [(55)], in the assay on Blattalla germanica, the “death rate of the pest” value is reported as 100%.
Regarding `N#CC(C#N)(CCC(F)(C(F)(F)F)C(F)(F)F)CCC(F)(C(F)(F)F)C(F)(F)F` [(56)], the “death rate of the pest” value with Blattalla germanica and in the assay with Blattella germanica [1] was 100% in each case.
`N#CC(C#N)(CC(Br)C(F)(F)F)CC(F)(F)C(F)(F)C(F)(F)C(F)F` (stereo not drawn) [(57)]: the “death rate of the pest” value in the assay on Blattella germanica [1] is reported as 100%.
Turning to `N#CC(C#N)(CCC(F)(F)F)CC(Cl)C(F)(F)F` (stereo not drawn) [(58)], in the assay with Blattalla germanica, the “death rate of the pest” value is on record as 100%.
Turning to `CC(F)(F)CCC(C#N)(C#N)CC(F)(F)C(F)(F)C(F)(F)C(F)F` [(59)], the “death rate of the pest” value in the assay on Blattalla germanica and in the assay on Blattella germanica [1] was 100% throughout.
Turning to `N#CC(C#N)(CCCCC(F)F)CCC(F)(F)F` [(60)], the “death rate of the pest” value in the assay with Blattalla germanica worked out at 100%.
In the case of `N#CC(C#N)(CC(F)(F)C(F)F)CC(F)(F)C(F)(F)C(F)(F)C(F)F` [(61)], the “death rate of the pest” value in the assay on Blattalla germanica and in the assay on Blattella germanica [1] was 100% each time.
For the compound `CC(F)(F)CCC(C#N)(C#N)CCC(F)(F)F` [(64)], the “death rate of the pest” value in the assay with Blattalla germanica stood at 100%.
For `N#CC(C#N)(CCCC(F)(F)F)CC(F)(F)C(F)(F)C(F)(F)C(F)F` [(66)], the “death rate of the pest” value in the assay with Blattalla germanica and in the assay on Blattella germanica [1] was 100% in each case.
In the case of `N#CC(C#N)(CCC(F)(Cl)C(F)(F)Cl)CC(F)(F)C(F)(F)C(F)(F)C(F)F` (stereo not drawn) [(67)], the “death rate of the pest” value in the assay with Blattalla germanica and with Blattella germanica [1] was 100% each time.
With `N#CC(C#N)(CCC(F)(F)C(F)(F)F)CC(F)(F)C(F)(F)C(F)(F)C(F)F` [(68)], the “death rate of the pest” value with Blattalla germanica and in the assay on Blattella germanica [1] was 100% in each case.
As for `N#CC(C#N)(CC(Cl)C(F)(F)F)CC(F)(F)C(F)(F)C(F)(F)C(F)F` (stereo not drawn) [(69)], the “death rate of the pest” value with Blattalla germanica and in the assay on Blattella germanica [1] was 100% each time.
Turning to `CCC(F)(F)CCC(C#N)(C#N)CCC(F)(F)F` [(70)], in the assay on Blattella germanica [1], the “death rate of the pest” value stood at 100%.
As to `N#CC(C#N)(CCC(F)(F)C(F)(F)C(F)(F)F)CC(F)(F)C(F)(F)C(F)(F)C(F)F` [(71)], the “death rate of the pest” value in the assay with Blattalla germanica and with Blattella germanica [1] was 100% each time.
Regarding `N#CC(C#N)(CC1CC1)CC(F)(F)C(F)(F)C(F)(F)C(F)F` [(72)], the “death rate of the pest” value in the assay with Blattalla germanica was found to be 100%.
The same measure, in the same setting: the result for `C=CCCC(C#N)(C#N)CC(F)(F)C(F)(F)C(F)(F)C(F)F` [(73)] reads 100%.
Consider `N#CC(C#N)(CCCF)CC(F)(F)C(F)(F)C(F)(F)C(F)F` [(74)], for which the “death rate of the pest” value with Blattalla germanica was 100%.
As to `N#CC(C#N)(CCC(F)=C(F)F)CC(F)(F)C(F)(F)C(F)(F)C(F)F` [(75)], the “death rate of the pest” value in the assay on Blattalla germanica is 100%.
Consider `CC(C)=CCC(C#N)(C#N)CC(F)(F)C(F)(F)C(F)(F)C(F)F` [(78)], for which the “death rate of the pest” value with Blattalla germanica amounted to 100%.
Regarding `N#CC(C#N)(CC(F)(F)C(F)(F)C(F)(F)F)CC(F)(F)C(F)(F)C(F)(F)C(F)F` [(79)], the “death rate of the pest” value in the assay on Blattalla germanica and with Blattella germanica [1] was 100% each time.
As for `CCCCC(C#N)(C#N)CC(F)(F)C(F)(F)C(F)(F)C(F)F` [(80)], the “death rate of the pest” value in the assay with Blattalla germanica is given as 100%.
In the case of `N#CC(C#N)(CC(F)(F)C(F)C(F)(F)F)CC(F)(F)C(F)(F)C(F)(F)C(F)F` (stereo not drawn) [(81)], the “death rate of the pest” value with Blattalla germanica and in the assay on Blattella germanica [1] was 100% throughout.
Consider `CCCC(C#N)(C#N)CC(F)(F)C(F)(F)C(F)(F)C(F)F` [(82)], for which the “death rate of the pest” value with Blattalla germanica is recorded as 100%.
Take `N#CC(C#N)(CCC(F)(F)F)CC1CCC(F)(F)CC1` [(83)]: the “death rate of the pest” value in the assay on Blattalla germanica and with Blattella germanica [1] was 100% each time.
For `N#CC(C#N)(CCC1CCC(F)(F)C1)CCC(F)(F)F` (stereo not drawn) [(84)], in the assay with Blattella germanica [1], the “death rate of the pest” value is recorded as 100%.
As to `N#CC(C#N)(CCC(F)(F)F)C[C@H]1CCC[C@@H](C(F)F)C1` [(87)], in the assay with Blattalla germanica, the “death rate of the pest” value worked out at 100%.
Still for that read-out and setting: the result for `N#CC(C#N)(CCC(F)(F)F)C[C@H]1CCC[C@@H](CF)C1` [(88)] reads 100%.
As to `N#CC(C#N)(CCCC(F)(F)C(F)(F)F)CCC(F)(F)F` [(89)], the “death rate of the pest” value in the assay on Blattalla germanica and in the assay with Blattella germanica [1] was 100% each time.
For the compound `CC(F)(F)CCCC(C#N)(C#N)CCC(F)(F)F` [(90)], in the assay with Blattella germanica [1], the “death rate of the pest” value was 100%.
In the case of `N#CC(C#N)(CC(F)(F)C(F)(F)F)CC(F)(F)C(F)(F)F` [(93)], the “death rate of the pest” value in the assay on Blattalla germanica is 100%.
